Species on record: Rattus norvegicus
Assay: Open TG-GATES - Regimen: Single
Format: toxicity, organism-based, Sprague-Dawley
Set-up: regimen Single, gender Male, age 6 weeks
Details: in vivo, po, 300 mg/kg, route gavage, dose level Low; for APTT / Bas / Eos / Fbg / Hb / Ht / Lym / MCH / MCHC / MCV / Mono / Neu / PT / Plat / RBC / Ret / WBC: tissue Blood; for KIDNEY_L / KIDNEY_R / KIDNEY_TOTAL: tissue Kidney; for LIVER: tissue Liver; for A/G / ALP / ALT / AST / BUN / CRE / Ca / Cl / DBIL / GLC / IP / K / LDH / Na / PL / RALB / TBIL / TC / TG / TP / gamma-GTP: tissue Plasma

## CC(=O)[C@@]1(O)CC[C@H]2[C@@H]3C=C(Cl)C4=CC(=O)CC[C@]4(C)[C@H]3CC[C@@]21C [CHLORMADINONE]
3 h
  TERMINAL_BW: 219.9 g
  APTT: 22.1 s
  Bas: 0%
  Eos: 1%
  Fbg: 310.8 mg/dL
  Hb: 13 g/dL
  Ht: 40.3%
  Lym: 75%
  MCH: 20.5 pg
  MCHC: 32.4%
  MCV: 63.3 fL
  Mono: 1.8%
  Neu: 22.4%
  PT: 15.2 s
  Plat: 115.5 x10_4/uL
  RBC: 637.8 x10_4/ul
  Ret: 7.3%
  WBC: 52.5 x10_2/uL
  KIDNEY_L: 0.9 g
  KIDNEY_R: 1 g
  KIDNEY_TOTAL: 1.9 g
  LIVER: 10.4 g
  A/G: 1.3
  ALP: 1442.2 IU/L
  ALT: 48 IU/L
  AST: 78.6 IU/L
  BUN: 16 mg/dL
  CRE: 0.2 mg/dL
  Ca: 11 mg/dL
  Cl: 105.4 meq/L
  DBIL: 0 mg/dL
  GLC: 181.4 mg/dL
  IP: 9.3 mg/dL
  K: 4.2 meq/L
  LDH: 140.6 IU/L
  Na: 143 meq/L
  PL: 147.2 mg/dL
  RALB: 3.1 g/dL
  TBIL: 0.024 mg/dL
  TC: 79.8 mg/dL
  TG: 51.6 mg/dL
  TP: 5.6 g/dL
  gamma-GTP: 1.6 IU/L
6 h
  TERMINAL_BW: 217.9 g
  APTT: 24.4 s
  Bas: 0%
  Eos: 0.8%
  Fbg: 317.6 mg/dL
  Hb: 13.1 g/dL
  Ht: 40.7%
  Lym: 77.2%
  MCH: 20.6 pg
  MCHC: 32.3%
  MCV: 63.8 fL
  Mono: 1.8%
  Neu: 20%
  PT: 15.6 s
  Plat: 106.2 x10_4/uL
  RBC: 638.2 x10_4/ul
  Ret: 7.9%
  WBC: 68.9 x10_2/uL
  KIDNEY_L: 1 g
  KIDNEY_R: 1 g
  KIDNEY_TOTAL: 2 g
  LIVER: 10.3 g
  A/G: 1.3
  ALP: 1567.8 IU/L
  ALT: 39.4 IU/L
  AST: 72.8 IU/L
  BUN: 12.6 mg/dL
  CRE: 0.1 mg/dL
  Ca: 10.5 mg/dL
  Cl: 105.8 meq/L
  DBIL: 0 mg/dL
  GLC: 181.8 mg/dL
  IP: 9.2 mg/dL
  K: 4.4 meq/L
  LDH: 159.6 IU/L
  Na: 141.4 meq/L
  PL: 134.8 mg/dL
  RALB: 3.1 g/dL
  TBIL: 0.032 mg/dL
  TC: 80.8 mg/dL
  TG: 35 mg/dL
  TP: 5.6 g/dL
  gamma-GTP: 1.8 IU/L
9 h
  TERMINAL_BW: 219.9 g
  APTT: 24.1 s
  Bas: 0%
  Eos: 0.2%
  Fbg: 325.6 mg/dL
  Hb: 13.2 g/dL
  Ht: 41%
  Lym: 79.4%
  MCH: 20.2 pg
  MCHC: 32%
  MCV: 63.1 fL
  Mono: 1%
  Neu: 18.8%
  PT: 15.6 s
  Plat: 113.9 x10_4/uL
  RBC: 651.2 x10_4/ul
  Ret: 7.9%
  WBC: 52.5 x10_2/uL
  KIDNEY_L: 1 g
  KIDNEY_R: 1 g
  KIDNEY_TOTAL: 2 g
  LIVER: 10.4 g
  A/G: 1.3
  ALP: 1458.4 IU/L
  ALT: 39.4 IU/L
  AST: 72 IU/L
  BUN: 14.2 mg/dL
  CRE: 0.1 mg/dL
  Ca: 10.8 mg/dL
  Cl: 105.4 meq/L
  DBIL: 0 mg/dL
  GLC: 201.8 mg/dL
  IP: 8.9 mg/dL
  K: 4.5 meq/L
  LDH: 153.6 IU/L
  Na: 140.6 meq/L
  PL: 152 mg/dL
  RALB: 3.2 g/dL
  TBIL: 0.026 mg/dL
  TC: 83 mg/dL
  TG: 79 mg/dL
  TP: 5.6 g/dL
  gamma-GTP: 1.6 IU/L
24 h
  TERMINAL_BW: 225.1 g
  APTT: 25.2 s
  Bas: 0%
  Eos: 1.2%
  Fbg: 336.2 mg/dL
  Hb: 13.8 g/dL
  Ht: 41.9%
  Lym: 80.4%
  MCH: 21.1 pg
  MCHC: 32.9%
  MCV: 64 fL
  Mono: 2.4%
  Neu: 15.2%
  PT: 15.5 s
  Plat: 121.2 x10_4/uL
  RBC: 654.4 x10_4/ul
  Ret: 7.7%
  WBC: 124 x10_2/uL
  KIDNEY_L: 1 g
  KIDNEY_R: 1 g
  KIDNEY_TOTAL: 2 g
  LIVER: 11 g
  A/G: 1.3
  ALP: 1795.2 IU/L
  ALT: 46.2 IU/L
  AST: 73 IU/L
  BUN: 18.8 mg/dL
  CRE: 0.2 mg/dL
  Ca: 10.6 mg/dL
  Cl: 106.4 meq/L
  DBIL: 0 mg/dL
  GLC: 184 mg/dL
  IP: 8.1 mg/dL
  K: 4.5 meq/L
  LDH: 204.8 IU/L
  Na: 141 meq/L
  PL: 169.2 mg/dL
  RALB: 3.1 g/dL
  TBIL: 0.004 mg/dL
  TC: 83.8 mg/dL
  TG: 175 mg/dL
  TP: 5.6 g/dL
  gamma-GTP: 2 IU/L

From ChEMBL document CHEMBL3885861, “Open TG-GATES”
